Consider four compounds from patent publication US12528837B2, “Aryl substituted polymyxin derivatives” (priority 2018, dated 2026).

Values after ≈ are worked out from the molar mass of the structure shown. Read-outs that look alike come from different tables or passages of the source. Marks after values point to notes of the source that are not given here. *1 amine or outer side, *2 acyl side, *3 side chain or, on linkers, in order; H or OH if unused. Where a SMILES comes first, the peptide text is derived from it. Bridges are numbered along the chain shown (N, C = ends). [ ]: non-standard residue; d: D form. The star is where a group is joined. GABA(3R-Bn) = O=C(C[C@H](CN[*:1])Cc1ccccc1)[*:2]; X17 = CC(C)C[C@@H]1CNC[C@@H](C(=O)*)C1; X1 = NC[C@@H](CC(=O)*)c1cccc(Cl)c1; Dab = NCC[C@H](N)C(=O)O; Dap = NC[C@H](N)C(=O)O

Data set [1] relates to A. baumannii IHMA 851735 (OXA-23). The format is cell-based. The note with it: IHMA 851735 (OXA-23). Here is the method:
(§1) MIC values (μg/mL) were determined by broth microdilution under CLSI conditions.

Data set [2] relates to K. pneumoniae IHMA 520329 (SHV-12, KPC-2). The format is cell-based. The conditions noted are these: IHMA 520329 (SHV-12, KPC-2). Here is the method: as §1
The subject of data set [3] is E. coli CDF-1 (MCR-1). The format is cell-based. The note with it: CDF-1 (MCR-1). How it is done:
as §1

Data set [4] concerns P. aeruginosa IHMA 517175. It counts as cell-based. The conditions noted are these: IHMA 517175. How it is done:
as §1

For data set [5], the system named is A. baumannii IHMA 517303. The format is cell-based. The conditions noted are these: IHMA 517303. How it is done:
as §1

Data set [6] relates to K. pneumoniae IHMA 580884. The format is cell-based. The note with it: IHMA 580884. How it is done:
as §1

Data set [7] has as its system A. baumannii NCTC 13301 (OXA-23). It counts as cell-based. The note with it: NCTC 13301. Here is the method: as §1
Data set [8] relates to P. aeruginosa ATCC 27853. The format is cell-based. The conditions noted are these: ATCC 27853. Here is the method: as §1
The test system of data set [9] is P. aeruginosa IHMA 644636. The format is cell-based. The conditions noted are these: IHMA 644636. Here is the method: as §1
In data set [10] the test system is E. coli IHMA 940398. The format is cell-based. The note with it: IHMA 940398. How it is done:
as §1

Data set [11] is described as follows: Kidney drug level after subcutaneous dose in mouse. It counts as in vivo. The note with it: for Drug Level in Kidney 4 h / Drug Level in Kidney 16 h: sc, 17.2 mg/kg; for 4 hr kidney level/rel. cytotoxicity: ratio of 4 h kidney level to HK-2 IC50 relative to PMB. Put shortly:
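Mice were euthanised four hours after subcutaneous dosing. Both kidneys were trimmed, weighed, snap-frozen, then homogenised with zirconium oxide beads. After centrifugation (13,000 rpm, 6 °C, 10 min), supernatants were analysed by LC-MS-MS.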

The subject of data set [12] is A. baumannii NCTC 13424. It counts as cell-based. The note with it: NCTC 13424. Here is the method: (§2) The inoculum was prepared by making a direct suspension of isolated colonies (selected from an 18-24 hour Mueller-Hinton agar plate) adjusted to the 0.5 McFarland standard. […] The assays were performed in duplicate. […] The MIC values are quoted in μg/mL.
The test system of data set [13] is P. aeruginosa ATCC 27853. The format is cell-based. The note with it: ATCC 27853. Here is the method: as §2
The source holds these as a separate data set.

In data set [14] the test system is P. aeruginosa CCUG 59347. It counts as cell-based. In a few lines:
(§3)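 Inoculum was a direct suspension of isolated colonies from an 18-24 hour Mueller-Hinton agar plate, adjusted to the 0.5 McFarland standard. Assays ran in duplicate. MICs are in μg/mL; compounds tested more than once are reported as the median.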

Data set [15] relates to E. coli CA58. The format is cell-based. In a few lines:
as §3

Data set [16] has as its system K. pneumoniae CA64. The format is cell-based. In a few lines: as §3
The nature of data set [17]: Renal toxicity in mice, 17.2 mg/kg sc three times per day, urinary biomarkers. The format is in vivo, mouse. Here is the method: Starting immediately after the first dose on day 4, mice were transferred to individual metabolic cages and urine was collected over the following 24 hours for determination of biomarker levels (albumin, cystatin C, KIM-1).
PMB values show the range from 4 experiments and colistin from 2 experiments.
Elevation of albumin, cystatin C or KIM-1 in the urine are signs of renal damage.

Data set [18] in a line: Renal toxicity in mice, 25 mg/kg sc four doses at 8 hr intervals, biomarkers and histopathology. The format is in vivo, mouse. The note with it: sc 25 mg free base/kg; for Kidney histopathology: signs of degeneration or regeneration: mice (n=6). How it is done: After the fourth dose animals were transferred into individual metabolic cages and urine collected for 24 hours for determination of urinary biomarkers. After collecting urine mice were euthanised and the kidneys harvested for histopathology.

The test system of data set [19] is HK-2 cells. The data set can be described thus: In vitro renal cell toxicity assay (HK-2). It counts as cell-based. Put shortly:
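HK-2 cells seeded 7,500/well, adhered overnight, then exposed to compound for 24 h at 37° C, 5% CO2, with 5% water and 0.5% DMSO. Background-subtracted, vehicle-normalised dose-response fitted with bottom fixed at zero; IC50 reported relative to PMB in the same run, median where repeated.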

Data set [20] is described as follows: Renal toxicity in Cynomolgus monkey, iv infusion 7 days. It counts as in vivo. The conditions noted are these: Cynomolgus monkey (n=3), 20 mg/kg/dose, 3 times per day, 7 days. How it is done: In a separate experiment male monkeys (n=3) were dosed with PMB for the same period at 4 mg/kg/dose. In both experiments control animals were dosed 3 times per day with saline.
At the end of the 7 day period blood was sampled and the serum levels of blood urea nitrogen and creatinine determined as indicators of renal damage.
Kidneys were harvested at the end of the 7 day dosing period and examined microscopically.

Data set [21] deals with E. coli ATCC 25922. It counts as cell-based. The note with it: cation-adjusted Mueller-Hinton Broth, 18-20 h, 35° C. How it is done:
as §2

The subject of data set [22] is A. baumannii ATCC BAA-747. The format is cell-based. The conditions noted are these: cation-adjusted Mueller-Hinton Broth, 18-20 h, 35° C. How it is done:
as §2

Data set [23] relates to K. pneumoniae ATCC 13822. The format is cell-based. The note with it: cation-adjusted Mueller-Hinton Broth, 18-20 h, 35° C. Here is the method: as §2
Data set [24] can be described thus: Renal toxicity grading by urinary biomarkers (Table A). It counts as in vivo, mouse. On the set-up: key: −: indistinguishable to vehicle control; ++++: strong response from all biomarkers. The conditions noted are these: 4 doses 8 h apart at 25 mg free base/kg/dose or 4 days at 17.2 mg free base/kg/dose; urine 16-24 h.
Setting [25] is: cation-adjusted Mueller-Hinton Broth, 18-20 h, 35° C.
Setting [26] is: mice, sc three times per day 17.2 mg free base/kg, urine 24 h from day 4, geometric mean.

In the case of `CC(C)C[C@@H]1NC(=O)[C@@H](Cc2ccccc2)NC(=O)[C@H](CCN)NC(=O)[C@@H](NC(=O)[C@H](CN)NC(=O)[C@@H](NC(=O)C[C@H](CN)c2cccc(Cl)c2)[C@@H](C)O)CCNC(=O)[C@H]([C@@H](C)O)NC(=O)[C@H](CCN)NC(=O)[C@H](CCN)NC1=O` [Example 5, (S)-4-amino-3-(3- chlorophenyl)butanoyl- Thr-Dap-Cyclo[Dab- Dab-DPhe-Leu-Dab- Dab-Thr]] (X1-T[Dap][Dab][Dab][dF]L[Dab][Dab]T; lactam 3-C), the “MIC A. baumannii IHMA 851735” value in [1] was found to be 0.25 µg/mL (≈ 0.218 µM). The “MIC K. pneumoniae IHMA 520329” value in data set [2] is above 64 µg/mL. The “MIC E. coli CDF-1” value in [3] turned out to be 8 µg/mL (≈ 6.99 µM). In addition, the “MIC P. aeruginosa IHMA 517175” value in data set [4] came out at 8 µg/mL (≈ 6.99 µM). Moreover, in data set [5], the “MIC A. baumannii IHMA 517303” value was above 64 µg/mL. The “MIC K. pneumoniae IHMA 580884” value in data set [6] was determined as 16 µg/mL (≈ 14 µM). Further, in data set [7], the “MIC A. baumannii NCTC 13301” value was 0.06 µg/mL (≈ 0.0524 µM). The “MIC P. aeruginosa ATCC 27853” value in data set [8] was determined as 0.25 µg/mL (≈ 0.218 µM). The “MIC P. aeruginosa IHMA 644636” value in data set [9] worked out at 32 µg/mL (≈ 28 µM). Further, the “MIC E. coli IHMA 940398” value in [10] worked out at 32 µg/mL (≈ 28 µM). In addition, the “Drug Level in Kidney (μg/g kidney, 4 h)” value in [11] (mouse, 17.2 mg/kg sc, 4 h) is 170 μg/g kidney. In data set [11] (mouse, in vivo), this compound registered a Drug Level in Kidney 4 h of 170 µg/g kidney and a Drug Level in Kidney 16 h of 19 µg/g kidney. Further, the “4 hr kidney level/rel. cytotoxicity” value in data set [11] was found to be 15. The “MIC A. baumannii NCTC 13424” value in data set [12] worked out at 0.06 µg/mL (≈ 0.0524 µM). Moreover, the “MIC P. aeruginosa ATCC 27853” value in data set [13] was determined as 0.25 µg/mL (≈ 0.218 µM). Further, in data set [14] (CCUG 59347), the “MIC P. aeruginosa CCUG 59347” value worked out at 0.25 µg/mL (≈ 0.218 µM). Moreover, the “MIC E. coli CA58” value in data set [15] (CA58) amounted to 8 µg/mL (≈ 6.99 µM). Further, the “MIC K. pneumoniae CA64” value in data set [16] (CA64) was 16 µg/mL (≈ 14 µM). In [17] (albumin, cystatin C, KIM-1, mice 17.2 mg free base/kg three times per day), the “Urinary biomarkers of renal toxicity, comparison (in words)” value is “lowest levels of all 3 biomarkers”. The “Kidney histopathology: signs of degeneration or regeneration” value in data set [18] was “None of the animals”. For the same compound, the “HK-2 rel to PMB” value in data set [19] was 11.6. In addition, the “Kidney microscopy: tubular degeneration” value in data set [20] was 1 showed mild tubular degeneration and 2 showed minimal degeneration.

Turning to `CC(C)C[C@@H]1NC(=O)[C@@H](Cc2ccccc2)NC(=O)[C@H](CCN)NC(=O)[C@@H](NC(=O)[C@H](CN)NC(=O)[C@@H](NC(=O)C[C@H](CN)Cc2ccccc2)[C@@H](C)O)CCNC(=O)[C@H]([C@@H](C)O)NC(=O)[C@H](CCN)NC(=O)[C@H](CCN)NC1=O` [Example 9, (R)-4-amino-3- benzylbutanoyl-Thr- Dap-Cyclo[Dab-Dab- DPhe-Leu-Dab-Dab- Thr). Isomer 1] ({GABA(3R-Bn)}-T[Dap][Dab][Dab][dF]L[Dab][Dab]T; lactam 3-C), in data set [11] (mouse, 17.2 mg/kg sc, 4 h), the “Drug Level in Kidney (μg/g kidney, 4 h)” value came to 159 μg/g kidney. Further, the “Drug level in kidney” value in data set [11] (mouse, 17.2 mg/kg sc, 4 hours) was found to be 159 µg/g. Besides, in [11] (mouse, in vivo, mice, 17.2 mg/kg free base sc, 4 h, read-out: 4 hr kidney level), the tissue level at time at 4 h was determined as 159000 ng/g. In addition, the “4 hr kidney level/rel. cytotoxicity” value in data set [11] came to 13. The “MIC E. coli ATCC 25922” value in [21] came out at 0.25 µg/mL (≈ 0.222 µM). Also, the “MIC A. baumannii ATCC BAA-747” value in data set [22] is 0.25 µg/mL (≈ 0.222 µM). In data set [23], the “MIC K. pneumoniae ATCC 13822” value was determined as 0.25 µg/mL (≈ 0.222 µM). In data set [14] (setting [25]), the “MIC P. aeruginosa CCUG 59347” value stood at 0.5 µg/mL (≈ 0.445 µM). Further, the “MIC E. coli CA58” value in [15] (setting [25]) was 8 µg/mL (≈ 7.12 µM). In addition, the “MIC K. pneumoniae CA64” value in data set [16] (setting [25]) worked out at 64 µg/mL (≈ 56.9 µM). For the same compound, the “Kidney histopathology: signs of degeneration or regeneration” value in [18] was “None of the animals”. For the same compound, in [18] (mice, urine 24 h), the “Albumin, urine” value is reported as 749 μg/24 h; the “Cystatin C, urine” value was determined as 754 ng/24 h; the “KIM-1, urine” value came to 2 ng/24 h. In addition, the “HK-2 rel to PMB” value in data set [19] (IC50 relative to PMB in the same experiment, 24 h) is given as 12.0.

For the compound `CC(C)C[C@@H]1CNC[C@@H](C(=O)N[C@H](C(=O)N[C@@H](CN)C(=O)N[C@H]2CCNC(=O)[C@H]([C@@H](C)O)NC(=O)[C@H](CCN)NC(=O)[C@H](CCN)NC(=O)[C@H](CC(C)C)NC(=O)[C@@H](CC(C)C)NC(=O)[C@H](CCN)NC2=O)[C@@H](C)O)C1` [Reference Example D77, reference compound] (X17-T[Dap][Dab][Dab][dL]L[Dab][Dab]T; lactam 3-C), in data set [11] (mouse, in vivo), the Drug Level in Kidney 4 h came out at 516 µg/g kidney and the Drug Level in Kidney 16 h was 264 µg/g kidney. For the same compound, the “Cytotoxicity (measured IC50 relative to that recorded for Polymyxin B)” value in data set [19] is listed as 23**. Also, the “Renal toxicity (grade from urinary KIM-1, albumin, cystatin C)” value in data set [24] is on record as “++++”.

Colistin: in data set [17] (setting [26]), the “Albumin, urine” value is given as 2,353-2,548 μg/24 h; the “Cystatin C, urine” value is given as 1,266-1,678 ng/24 h; the “KIM-1, urine” value is reported as 42-89 ng/24 h.
